In patent US7943664B2, “Phosphate binding materials and their uses” (Medical Research Council, priority 2008, dated 2011):

Assays:
[1] = Langmuir isotherms, determination of affinity and capacity; assay type: physicochemical; details: Langmuir isotherm at pH 5, 10 mM phosphate, 0.9% NaCl, binder mass 13.4-80.4 mg
Procedure: The Langmuir isotherms were obtained using the same methodology as in Autissier et al. (2007), except in vitro solutions also contained 0.9% NaCl to make the assay better simulate physiological conditions. These Langmuir isotherms were generated at pH 5 and experimental conditions were similar to those in “Phosphate binding at physiological concentration” except the mass of binders was varied from 13.4-80.4 mg.
We further compared the phosphate binding abilities of FeOH Ad100, FeOH Ad100 SiO2, and lanthanum using Langmuir isotherms. The Langmuir equation relates the adsorption of molecules on a solid surface to a concentration and was adapted to determine the affinity and capacity of the above noted phosphate binders:
C=concentration of adsorbate unbound in mM
Cad/m=mmol of adsorbate bound per g binder
It was not possible to determine these values for Renagel because its low affinity required a higher concentration of phosphate than the physiologically relevant concentration (10 mM) that was tested in this experiment. Langmuir isotherms were generated at pH 5 and experimental conditions were similar to those in FIGS. 2a/b, except the mass of binders was varied from 13.4-80.4 mg.

[2] = In vitro phosphate binding at physiological concentration; assay type: physicochemical
Procedure: An exemplary assay for determining phosphate binding is reported in the example 2.1 in which equal masses of ferrihydrite (e.g. 53.6 mg), or indeed any other binder used as a comparison, and a phosphate binder of the present invention were assayed to determine the percentage of phosphate they are capable of binding under physiological conditions. In general, the mass of the materials used in the assay may be between 10 mg and 80 mg inclusive in a 20 mL assay. […]
A solution containing 10 mM phosphate, a physiologically relevant concentration, and 0.9% NaCl was adjusted to pH 3, pH 5 and finally pH 7. […] The percentage of phosphate binding was calculated according to: Phosphate binding=(1−([P]t0−[P]ti)/[P]ti)×100 […]
Iron and phosphorus contents of solutions or solids (including wet solids) were measured using a JY2000-2 ICPOES (Horiba Jobin Yvon Ltd., Stanmore, U.K.) at the iron specific wavelength of 259.940 nm, and at the phosphorus wavelengths of 177.440 and/or 214.914 nm. […] The percentage of iron in solution or solid phase was determined by the difference between the starting iron content and either the iron in the soluble phase or the iron in the solid phase depending on the assay. […]

SMILES: O=C([O-])[O-].O=C([O-])[O-].O=C([O-])[O-].[La+3].[La+3] [Lanthanum Carbonate, Lanthanum carbonate]
- K1 (Affinity) [1]: 1.6
- K2 (Capacity) ([1]; unit printed for K2, not in the table): 1.0 mmol P/g binder
- phosphate binding ([2]; 20 mL 10 mM phosphate, 0.9% NaCl, 54 mg (53.6 mg) binder, pH 3 for 60 min then pH 5 for 60 min, sequentially (FIG. 2a/b)): 70-85%
- phosphate binding ([2]; binder exposed directly to the solution at pH 5 for 1 hour, without pre-conditioning at pH 3 (FIG. 3)): ≈ 30%
